Data: US11884668B1, “Substituted pyrido[3′,4′:4,5]pyrrolo[2,3-c]quinolines as CK2 inhibitors” (KING FAISAL UNIVERSITY, priority 2023, dated 2024)

Key:
[1] = tested on: A375 (melanoma); assay: In vitro cytotoxic activity assay (MTT), A375; format: cell-based; conditions: Homo sapiens, A-375; A375 (melanoma) cells, exposed for 96 hours; read-out: IC50, concentration of compound eliciting a 50% inhibition of cell proliferation
Description: (§1) Compounds 1-16 were screened for their in vitro cytotoxic activity utilizing a 3-(4,5-dimethyl-thiazol-2-yl)-2,5-diphenyltetrazolium bromide (MTT) assay against selected cancer human cell lines consisting of PC3 (prostate), HCT116 (colon), A375 (melanoma), H1299 (lung), MIAPaCa-2 (pancreas), HL60 (leukemia), MCF7 (breast), MDA-MB-231 (breast) (T. Mosmann, J. Immunol. Meth., 1983, 65, 55-63). The cells were cultured at 37° C. in RMPI1640 medium supplemented with 10% fetal bovine serum, 50 IU/mL penicillin, and 50 μg/mL streptomycin in a 5% CO2 incubator. All cells were sub-cultured 3 times/week by trypsinisation. Viable cells were seeded and allowed to adhere for 12 h before a test drug was added in 96-well plates at an initial density of 1.0×10^5 cells/mL. Tumour cell lines were separately exposed to various concentrations of the tested compounds followed by incubation at a temperature of 37° C. during 96 h inside a medium of fresh RMPI 1640. Cells were subsequently incubated at 37° C. using MTT at 0.5 mg/mL during 4 h. After removal of supernatant, formazan crystals were dissolved in isopropanol and the optical density was measured at 570 nm. CX-4945 was used as a positive control.

[2] = tested on: MCF7 (breast); assay: In vitro cytotoxic activity assay (MTT), MCF7; format: cell-based; conditions: Homo sapiens; MCF7 (breast) cells, exposed for 96 hours; read-out: IC50, concentration of compound eliciting a 50% inhibition of cell proliferation
Description: as §1

[3] = tested on: MDA-MB-231 (breast); assay: In vitro cytotoxic activity assay (MTT), MDA-MB-231; format: cell-based; conditions: Homo sapiens; MDA-MB-231 (breast) cells, exposed for 96 hours; read-out: IC50, concentration of compound eliciting a 50% inhibition of cell proliferation
Description: as §1

[4] = tested on: H1299 (lung); assay: In vitro cytotoxic activity assay (MTT), H1299; format: cell-based; conditions: Homo sapiens, NCI-H1299; H1299 (lung) cells, exposed for 96 hours; read-out: IC50, concentration of compound eliciting a 50% inhibition of cell proliferation
Description: as §1

[5] = tested on: PC3 (prostate); assay: In vitro cytotoxic activity assay (MTT), PC3; format: cell-based; conditions: Homo sapiens, Prostate cell; PC3 (prostate) cells, exposed for 96 hours; read-out: IC50, concentration of compound eliciting a 50% inhibition of cell proliferation
Description: as §1

[6] = tested on: MIAPaCa-2 (pancreas); assay: In vitro cytotoxic activity assay (MTT), MIAPaCa-2; format: cell-based; conditions: Homo sapiens, MIA PaCa-2; MIAPaCa-2 (pancreas) cells, exposed for 96 hours; read-out: IC50, concentration of compound eliciting a 50% inhibition of cell proliferation
Description: as §1

[7] = tested on: HL60 (leukemia); assay: In vitro cytotoxic activity assay (MTT), HL60; format: cell-based; conditions: Homo sapiens, HL-60; HL60 (leukemia) cells, exposed for 96 hours; read-out: IC50, concentration of compound eliciting a 50% inhibition of cell proliferation
Description: as §1

[8] = target: T1, recombinant human CK2 (Homo sapiens, UniProt P68400); assay: CK2 Kinase Assay (radiometric, [γ-33P]ATP); format: biochemical; conditions: final ATP concentration 15 μM, 10 min at 30° C.; read-out: protein kinase CK2 activity IC50
T1 construct: purchased Millipore
T1 sequence (P68400 whole entry): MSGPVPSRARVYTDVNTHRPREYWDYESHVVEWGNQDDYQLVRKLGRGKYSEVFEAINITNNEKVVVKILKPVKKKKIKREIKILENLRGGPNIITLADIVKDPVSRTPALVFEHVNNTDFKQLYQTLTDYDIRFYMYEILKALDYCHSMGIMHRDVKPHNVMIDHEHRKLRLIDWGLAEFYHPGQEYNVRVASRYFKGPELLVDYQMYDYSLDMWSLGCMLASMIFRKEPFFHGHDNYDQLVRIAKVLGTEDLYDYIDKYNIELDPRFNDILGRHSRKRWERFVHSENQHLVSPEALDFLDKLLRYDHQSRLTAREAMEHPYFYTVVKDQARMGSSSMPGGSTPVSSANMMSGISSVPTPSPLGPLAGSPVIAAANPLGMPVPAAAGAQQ
T1 sequence (P67870 whole entry partner): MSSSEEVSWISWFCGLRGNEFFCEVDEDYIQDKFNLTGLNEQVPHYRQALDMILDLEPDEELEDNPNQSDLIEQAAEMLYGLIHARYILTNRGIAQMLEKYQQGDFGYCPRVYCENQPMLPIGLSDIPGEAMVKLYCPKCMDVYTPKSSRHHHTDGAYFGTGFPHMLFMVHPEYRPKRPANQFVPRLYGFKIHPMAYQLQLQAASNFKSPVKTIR
Description: CK2 Kinase Assay was conducted using the protocol as described in Pierre F. et al; J. Med. Chem. 2011, 54, 635-654. The tested compounds in aqueous solution were added at a volume of 10 μL to a reaction mixture comprising 10 μL of assay dilution buffer (ADB; 20 mM MOPS, pH 7.2, 25 mM β-glycerol phosphate, 5 mM EGTA, 1 mM sodium orthovanadate, and 1 mM dithiothreitol), 10 μL of substrate peptide (RRRDDDSDDD, dissolved in ADB at a concentration of 1 mM), 10 μL of recombinant human CK2 (RROP-holoenzyme, 25 ng dissolved in ADB; Millipore). Reactions were initiated by the addition of 10 μL of ATP solution (90% 75 mMMgCl2, 75 μM ATP (final ATP concentration:15 μM) dissolved in ADB; 10% [γ-33P] ATP (stock 1mCi/100 L; 3000 Ci/mmol (Perkin-Elmer) and maintained for 10 min at 30° C. The reactions were quenched with 100 μL of 0.75% phosphoric acid and then transferred to and filtered through a phosphor cellulose filter plate (Millipore). After washing each well five times with 0.75% phosphoric acid, the plate was dried under vacuum for 5 min and, following the addition of 15 μL of scintillation fluid to each well, the residual radioactivity was measured using a Wallac luminescence counter. The IC50 values were derived from eight concentrations of test inhibitors.

[9] = tested on: HCT116 (colon); assay: In vitro cytotoxic activity assay (MTT), HCT116; format: cell-based; conditions: Homo sapiens, HCT-116; HCT116 (colon) cells, exposed for 96 hours; read-out: IC50, concentration of compound eliciting a 50% inhibition of cell proliferation
Description: as §1

## O=C(O)c1ccc2c(c1)nc(Nc1cccc(Cl)c1)c1[nH]c3ccncc3c12 [Compound 1, 6-((3-chlorophenyl)amino)-7H-pyrido[3′,4′:4,5]pyrrolo[2,3-c]quinoline-3-carboxylic acid]
[1]
  IC50: 3.3 µM
[2]
  IC50: 4.1 µM
[3]
  IC50: 2.5 µM
[4]
  IC50: 1.9 µM
[5]
  IC50: 1.1 µM
[6]
  IC50: 1.1 µM
[7]
  IC50: 2.8 µM
[8]
  IC50: 0.175 µM
[9]
  IC50: 1.5 µM
